Measured values from patent US9414598B2, “Protecting wood with stabilized boron complexes” (priority 2006, dated 2016).
Read-outs that look alike come from different tables or passages of the source. Marks after values point to notes of the source that are not given here.

Experiments:
[1] = for Mean values of the initial boron retention: before leaching, (standard deviations); for Mean of boron retained in wood (std. dev): mean of three samples
Protocol: Accelerated leaching tests were performed according to AWPA E11-97 (AWPA, 2003). Four Southern yellow pine (Pinus sp.) samples were leached, each in its own leaching flask. At the end of each leaching period, the leachate was collected and the samples were air dried for two weeks. The amount of boron retained in the wood was determined by inductive coupled plasma (ICP) spectrometry after boron was extracted with hydrochloric acid from the ground wood.

Brown rot = details: 12 weeks decay
Protocol: (§1) Decay tests were conducted on wood blocks, both leached and unleached. Samples were halved, with one group subjected to weathering and the other group maintained unweathered. Both sets of samples were subjected to a soil block culture test according to the AWPA E10-01 method. For each block, the percentage of mass loss was determined. These samples were allowed to decay for 12 weeks for brown rot decay and for 16 weeks for white rot decay.

White rot = details: for % mass loss (std. dev): White rot, 16 weeks decay
Protocol: as §1

Source text for Coptotermes formosanus: The wood cubes also were subjected to a termite mortality test (Coptotermes formosanus).

OB(O)O [Boric acid only, Boric acid]
Mean values of the initial boron retention ([1]; Southern yellow pine cubes, samples for Leaching test): 2075.0^a (2.19)^b ppm | Mean of boron retained in wood (std. dev) ([1]; leaching duration 0 (Not unleached)): 2075.0 (80.18) ppm | Mean of boron retained in wood (std. dev) ([1]; leaching duration 6 hours): 1005.00 (125.2) ppm | Mean of boron retained in wood (std. dev) ([1]; leaching duration 24 hours): 737.13 (40.85) ppm | Mean of boron retained in wood (std. dev) ([1]; leaching duration 2 days): 99.32 (17.84) ppm | Mean of boron retained in wood (std. dev) ([1]; leaching duration 4 days): 25.37 (2.81) ppm | Mean of boron retained in wood (std. dev) ([1]; leaching duration 6 days): 2.908 (0.61) ppm | Mean of boron retained in wood (std. dev) ([1]; leaching duration 8 days): 2.941 (0.83) ppm | Mean of boron retained in wood (std. dev) ([1]; leaching duration 10 days): 2.89 (0.79) ppm | Mean of boron retained in wood (std. dev) ([1]; leaching duration 12 days): 2.79 (0.53) ppm | Mean of boron retained in wood (std. dev) ([1]; leaching duration 14 days): 2.8 (0.82) ppm | loss of boron on leaching (in words) ([1]; leaching of treated wood cubes): lost most of their boron within 6 hours | Mean values of the initial boron retention ([1]; samples for Brown rot test): 2227.31 (3.27) ppm | Mean values of the initial boron retention ([1]; samples for White rot test): 2225.43 (1.27) ppm | Termite mortality (%) (Coptotermes formosanus; in vivo): 4.3% | protection against termites (in words) (Coptotermes formosanus; treated wood cubes, boron-CA-SS after leaching): adequate protection against termites | % mass loss (std. dev) (Brown rot; Not leached samples): 3.21 (0.22) % | % mass loss (std. dev) (Brown rot; leached samples): 18.88 (2.30) % | % mass loss (std. dev) (White rot; Not leached samples): 2.51 (0.51) % | % mass loss (std. dev) (White rot; leached samples): 16.59 (2.19) % | decay resistance (in words) (White rot; leached samples, summary of Table 4 for white rot and brown rot): no significant decay resistance
